Experimental data from the NIST ThermoML archive (doi:10.1016/j.jct.2015.01.012).
“And” between values parts separate entries of the source, which are not always exact repeats. Equal entries are not always repeated.

Conditions: Crystal, Calculated from knudsen effusion weight loss

CCn1c(-c2ccccc2)cc2ccccc21 [1-ethyl-2-phenylindole]
Conditions | vapor or sublimation pressure
327.18 K | 7.2e-05 kPa and 6.9e-05 kPa and 7.1e-05 kPa
329.18 K | 9.5e-05 kPa and 9.1e-05 kPa and 8.9e-05 kPa
331.09 K | 0.000115 kPa and 0.000114 kPa and 0.000119 kPa
333.18 K | 0.000144 kPa and 0.000143 kPa and 0.000145 kPa
335.18 K | 0.00019 kPa and 0.000184 kPa and 0.000192 kPa
337.19 K | 0.000239 kPa and 0.00024 kPa
339.17 K | 0.000291 kPa and 0.000287 kPa and 0.000307 kPa
341.17 K | 0.000379 kPa and 0.000368 kPa and 0.000387 kPa
343.08 K | 0.000472 kPa and 0.000478 kPa
345.16 K | 0.000624 kPa and 0.000605 kPa and 0.000625 kPa
347.08 K | 0.000779 kPa and 0.000766 kPa and 0.000775 kPa
349.08 K | 0.000974 kPa and 0.000987 kPa and 0.000986 kPa

Cn1c(-c2ccccc2)cc2ccccc21 [1-methyl-2-phenylindole]
Conditions | vapor or sublimation pressure
331.17 K | 7.4e-05 kPa and 7.7e-05 kPa
333.17 K | 0.000104 kPa and 0.000102 kPa and 9.9e-05 kPa
335.1 K | 0.00013 kPa and 0.000126 kPa and 0.000128 kPa
337.18 K | 0.000157 kPa and 0.000154 kPa and 0.000158 kPa
339.21 K | 0.000204 kPa and 0.000197 kPa and 0.000214 kPa
341.12 K | 0.000252 kPa and 0.000254 kPa and 0.000251 kPa
343.17 K | 0.000316 kPa and 0.000308 kPa and 0.000323 kPa
345.14 K | 0.000404 kPa and 0.00039 kPa and 0.000414 kPa
347.08 K | 0.000497 kPa and 0.000501 kPa and 0.000494 kPa
349.17 K | 0.000593 kPa and 0.000586 kPa and 0.000585 kPa
351.21 K | 0.000772 kPa and 0.000745 kPa
353.12 K | 0.00092 kPa and 0.000943 kPa and 0.000939 kPa

c1ccc(-c2cc3ccccc3[nH]2)cc1 [2-phenyl-1H-indole]
Conditions | vapor or sublimation pressure
360.16 K | 0.000122 kPa and 0.000119 kPa and 0.000116 kPa
362.11 K | 0.000157 kPa and 0.000149 kPa and 0.000155 kPa
364.08 K | 0.000184 kPa and 0.000182 kPa and 0.000176 kPa
366.16 K | 0.000217 kPa and 0.000214 kPa and 0.000227 kPa
368.13 K | 0.00027 kPa and 0.000262 kPa and 0.000278 kPa
370.1 K | 0.000331 kPa and 0.000325 kPa and 0.000324 kPa
372.16 K | 0.000392 kPa and 0.000393 kPa and 0.000412 kPa
374.12 K | 0.000491 kPa and 0.000456 kPa and 0.0005 kPa
376.1 K | 0.00059 kPa and 0.000574 kPa and 0.000592 kPa
378.15 K | 0.000701 kPa and 0.000693 kPa and 0.000735 kPa
380.12 K | 0.000868 kPa and 0.000885 kPa and 0.000832 kPa
382.1 K | 0.001023 kPa and 0.001052 kPa and 0.001046 kPa
